Results from PubChem BioAssay (NCI).
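Growth conditions: 96-well plates. Treatment: test compound, 48 hours, 5 concentrations. Analysis: linear interpolation between bracketing concentrations; unreached endpoints set to highest concentration. GI50 = concentration required for 50% inhibition of growth. Definition used: TGI = concentration required for complete inhibition of growth.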

Key:
Test in all cases: NCI anticancer screen, dose series, 48 h
SK-MEL-5 melanoma = tested on: SK-MEL-5 melanoma
SK-OV-3 ovarian = tested on: SK-OV-3 ovarian
CAKI-1 renal = tested on: CAKI-1 renal
K-562 leukemia = tested on: K-562 leukemia
MALME-3M melanoma = tested on: MALME-3M melanoma
SNB-75 CNS = tested on: SNB-75 CNS
SF-268 CNS = tested on: SF-268 CNS
COLO 205 colon = tested on: COLO 205 colon
RXF 393 renal = tested on: RXF 393 renal
UO-31 renal = tested on: UO-31 renal

| Structure (SMILES) | TGI (SK-MEL-5 melanoma) | TGI (SK-OV-3 ovarian) | TGI (CAKI-1 renal) | TGI (K-562 leukemia) | TGI (MALME-3M melanoma) | TGI (SNB-75 CNS) | TGI (SF-268 CNS) | TGI (COLO 205 colon) | TGI (RXF 393 renal) | TGI (UO-31 renal) | GI50 (SK-MEL-5 melanoma) | GI50 (SK-OV-3 ovarian) | GI50 (CAKI-1 renal) | GI50 (K-562 leukemia) | GI50 (UO-31 renal) | GI50 (MALME-3M melanoma) | GI50 (SNB-75 CNS) | GI50 (SF-268 CNS) | GI50 (RXF 393 renal) | GI50 (COLO 205 colon) |
| --- | --- | --- | --- | --- | --- | --- | --- | --- | --- | --- | --- | --- | --- | --- | --- | --- | --- | --- | --- | --- |
| COc1ccc(C2=[S+]C(c3ccccc3)(c3ccccc3)c3ccccc32)cc1 | 31.5 µM | > 100 µM | > 100 µM | > 100 µM | 46.1 µM | 91.1 µM | > 100 µM | 31.3 µM | 26 µM |  |  |  |  |  |  |  |  |  |  |  |
| Nc1ccccc1C#CC(=O)c1cccc(C(F)(F)F)c1 | 6.17 µM | 28.6 µM | 13.5 µM | > 100 µM | 22.1 µM | 27.4 µM | 5.88 µM | 3.87 µM | 5.07 µM | 2.55 µM |  |  |  |  |  |  |  |  |  |  |
| CCOC(=O)/C=C/c1c(C)[nH]c(=O)[nH]c1=O | > 250 µM | > 141 µM | > 234 µM | > 250 µM | > 250 µM | > 250 µM | > 250 µM | > 250 µM | > 250 µM | > 250 µM |  |  |  |  |  |  |  |  |  |  |
| CN=C(Nc1ccc(OC)c2ccccc12)SC | > 10 µM | > 10 µM | > 10 µM | > 10 µM | > 10 µM | > 10 µM | > 10 µM | > 10 µM |  |  |  |  |  |  |  |  |  |  |  |  |
| Cc1ccc(O)c(C2=CC3=NNC(=O)C3C(c3cccc(Cl)c3)C2)c1 (configuration not stated) | > 100 µM | > 100 µM | > 100 µM | > 100 µM | 94 µM | 76.2 µM | > 100 µM | 30.4 µM | 9.62 µM | > 100 µM |  |  |  |  |  |  |  |  |  |  |
| O=C(/C=C1\Sc2ccccc2N=C1CC(=O)c1ccccc1)c1ccccc1 | 19 µM | 72 µM | 34.1 µM | 20 µM | 23 µM |  | 45.8 µM | 22.3 µM | > 100 µM | 31.5 µM |  |  |  |  |  |  |  |  |  |  |
| C/C(=N\NC(=S)N1CCC(N2CCCCC2)CC1)c1ccccn1 | 8.22 µM | 11.6 µM | 5.87 µM | > 100 µM | > 100 µM | 11.2 µM | 12.9 µM | 9.95 µM | 2.29 µM | 3.3 µM |  |  |  |  |  |  |  |  |  |  |
| COc1cccc2c1C(=O)c1c(O)c3c(c(O)c1C2=O)C[C@@](O)(C(=O)COC(=O)c1ccccc1)C[C@@H]3OC1CC(N)C(O)C(C)O1 (some centres not stated) | 0.712 µM | 1.44 µM | 2.11 µM | 0.327 µM | 0.652 µM | 0.738 µM | 1.34 µM |  | 0.859 µM | 2.06 µM | 0.2 µM | 0.264 µM | 0.701 µM | 0.104 µM | 0.497 µM | 0.136 µM | 0.0762 µM | 0.173 µM | 0.195 µM |  |
| Cc1ccc(Cl)cc1N=NC(=O)NNc1cc(Cl)ccc1C | 29.1 µM | 49.5 µM | 45.1 µM | > 100 µM | 64.6 µM | 36.3 µM |  | 41 µM | 72.7 µM | 35.7 µM |  |  |  |  |  |  |  |  |  |  |
| N#[N+]c1c([O-])c2ccccc2c2ccccc12 | 35.4 µM | > 100 µM | > 100 µM | > 100 µM |  | 82.9 µM | > 100 µM | > 100 µM | 45 µM | > 100 µM |  |  |  |  |  |  |  |  |  |  |
| c1ccc2c(c1)c1ccccc1n2Cn1c2ccccc2c2ccccc21 | > 100 µM |  | > 100 µM | > 100 µM | > 100 µM | > 100 µM | > 100 µM |  | > 100 µM | > 100 µM |  |  |  |  |  |  |  |  |  |  |
| Cc1cn(-c2cccc(NC(=O)c3ccc(C)c(Nc4nccc(-c5cccnc5)n4)c3)c2)cn1 | 7.46 µM | 3.52 µM | 3.05 µM | 4.17 µM | 2.99 µM | 2.97 µM | 9.58 µM | 3.65 µM | 3.03 µM | 3.05 µM | 2.16 µM | 2.03 µM | 1.6 µM | 1.47 µM | 1.5 µM | 1.51 µM | 1.59 µM | 2.92 µM | 1.62 µM | 2.09 µM |
| O=C1CCC[C@H]2O[C@@H](COC(=O)c3ccccc3)C[C@H]2O1 | > 100 µM | > 100 µM | > 100 µM | > 100 µM |  | > 100 µM | > 100 µM | > 100 µM |  | > 100 µM |  |  |  |  |  |  |  |  |  |  |
| O=c1oc(-c2ccc(O)cc2)cc2cc(O)ccc12 | 30.2 µM | 74.9 µM | > 100 µM | 39.8 µM | 72.3 µM | > 100 µM | 97.6 µM | 50.5 µM | 54.4 µM | 81.3 µM |  |  |  |  |  |  |  |  |  |  |
| Cc1cc(N/N=C/c2nc(-c3ccc(Cl)cc3)oc2C)c2cc(Br)ccc2n1 | 23.9 µM | 18.3 µM | 4.71 µM | 3.61 µM | 4.23 µM |  | 28.2 µM | 10.6 µM | 17.2 µM | 26.8 µM | 11.7 µM | 5.84 µM | 2.04 µM | 1.1 µM | 13.9 µM | 1.91 µM |  | 3.7 µM | 4.1 µM | 2.86 µM |
| COc1ccc(/C=C2\C[C@H]3[C@@H]4CCC5=C/C(=N/O)CC[C@]5(C)[C@H]4CC[C@]3(C)\C2=N\O)cc1 | 25.9 µM | > 100 µM | > 100 µM | > 100 µM | > 100 µM | > 100 µM | > 100 µM | 43.9 µM | 98.8 µM | 57.5 µM |  |  |  |  |  |  |  |  |  |  |
| O=c1nc2ccc([N+](=O)[O-])cc2[n+]([O-])[nH]1 | > 100 µM | > 100 µM | > 100 µM | > 100 µM | > 100 µM | > 100 µM | > 100 µM | > 100 µM | > 100 µM | > 100 µM |  |  |  |  |  |  |  |  |  |  |
| C/C(=N\NC(=O)c1ccc(Cl)cc1)c1nc2ncccc2[nH]1 | 55.6 µM | 60.5 µM | > 100 µM | > 100 µM | 48.9 µM | 17.9 µM | > 100 µM | 96.3 µM | 55.4 µM | > 100 µM |  |  |  |  |  |  |  |  |  |  |
| O=C(N/N=C\c1cccc2ccccc12)Nc1ccccc1 | > 100 µM | > 100 µM | > 100 µM | > 100 µM | > 100 µM | > 100 µM |  | > 100 µM | > 100 µM | > 100 µM |  |  |  |  |  |  |  |  |  |  |
| c1cc2c3c(c1)c1cc4c(cc1c[n+]3CC2)OCO4 | 9.08 µM | 97.2 µM | 120 µM | 32.3 µM | 3.88 µM | 8.09 µM | 5.26 µM | 19.9 µM | 32.5 µM | > 176 µM |  |  |  |  |  |  |  |  |  |  |
| CCc1ccc2[nH]c(O)c(C3=Nc4ccccc4C3=O)c2c1 | 33.4 µM | 41.5 µM | > 100 µM | > 100 µM | > 100 µM | 91.4 µM | 90.6 µM | > 100 µM | 51.4 µM | 37.9 µM |  |  |  |  |  |  |  |  |  |  |
| O=C(NN1C(=O)C(Cl)C1c1cccc([N+](=O)[O-])c1)c1ccccc1O (configuration not stated) | > 100 µM | > 100 µM |  | > 100 µM | > 100 µM | > 100 µM | > 100 µM | > 100 µM | > 100 µM | > 100 µM |  |  |  |  |  |  |  |  |  |  |
| CCOc1cc(/C=C/C(=O)C(C(=O)/C=C/c2ccc(OC(=O)CNc3nc4ccccc4[nH]3)c(OCC)c2)C(=O)CNc2nc3ccccc3[nH]2)ccc1OC(=O)CNc1nc2ccccc2[nH]1 | 3.02 µM | 11.9 µM |  | 2.75 µM | 5.93 µM | 27.9 µM | 6.79 µM | 4.61 µM | > 100 µM | > 100 µM | 1.6 µM | 3.17 µM |  | 1.44 µM | 3.98 µM | 1.75 µM | 3.73 µM | 2 µM | 4.08 µM | 2.08 µM |
| O=c1[nH]c(SCc2cccc([N+](=O)[O-])c2)nc2nc[nH]c12 | > 100 µM | > 100 µM | > 100 µM | > 100 µM | > 100 µM | > 100 µM | > 100 µM | > 100 µM | > 100 µM | > 100 µM |  |  |  |  |  |  |  |  |  |  |
| Oc1[nH]c2ccccc2c1C1=Nc2ccccc2/C1=N\OCCOC1OCC(O)C(O)C1O (configuration not stated) | > 100 µM | 7.99 µM | > 100 µM | > 100 µM | > 100 µM | > 100 µM | > 100 µM | > 100 µM | > 100 µM | > 100 µM |  |  |  |  |  |  |  |  |  |  |
